The NIST ThermoML archive (doi:10.1021/acs.jced.6b00523)
Where “and” joins values, the source holds several entries; their conditions need not be identical. Equal values may be shown once.

Legend:
[1] = Closed cell (Static) method
[2] = Boiling temperature at pressure P; conditions: 100 kPa; Glass; DTA
[3] = Molar enthalpy of transition or fusion; conditions: DSC
[4] = Solid-liquid equilibrium temperature; conditions: 100 kPa, DTA

O=C(c1ccccc1)c1ccccc1 [benzophenone]
[1]
Conditions	vapor or sublimation pressure
293.08 K, Crystal	4.2e-05 kPa
293.09 K, Crystal	4.6e-05 kPa
293.1 K, Crystal	4.1e-05 kPa
293.11 K, Metastable liquid	8.1e-05 kPa and 8.4e-05 kPa and 8.5e-05 kPa
296.29 K, Crystal	6.8e-05 kPa and 6.9e-05 kPa
296.3 K, Crystal	6.7e-05 kPa
298.44 K, Crystal	9.2e-05 kPa and 9.3e-05 kPa
298.45 K, Crystal	9e-05 kPa
298.48 K, Metastable liquid	0.000153 kPa and 0.000157 kPa and 0.000158 kPa
300.55 K, Crystal	0.000124 kPa
300.56 K, Crystal	0.000118 kPa and 0.000119 kPa
302.13 K, Metastable liquid	0.000217 kPa and 0.000221 kPa
302.14 K, Metastable liquid	0.000217 kPa
303.2 K, Crystal	0.000168 kPa
303.22 K, Crystal	0.000166 kPa
303.25 K, Crystal	0.000165 kPa
306.93 K, Crystal	0.000263 kPa and 0.000265 kPa and 0.000267 kPa
307.46 K, Metastable liquid	0.000382 kPa
307.48 K, Metastable liquid	0.000376 kPa and 0.00038 kPa
309.05 K, Crystal	0.000338 kPa and 0.00034 kPa and 0.000345 kPa
311.1 K, Crystal	0.000431 kPa and 0.000434 kPa and 0.000435 kPa
312.77 K, Metastable liquid	0.000631 kPa
312.78 K, Metastable liquid	0.000635 kPa and 0.000637 kPa
314.3 K, Crystal	0.000629 kPa and 0.000632 kPa and 0.000635 kPa
317.33 K, Crystal	0.000891 kPa
317.34 K, Crystal	0.000892 kPa and 0.000899 kPa
318.05 K, Metastable liquid	0.001035 kPa and 0.001036 kPa and 0.001039 kPa
319.4 K, Crystal	0.00113 kPa
319.41 K, Crystal	0.001128 kPa and 0.001131 kPa
320.42 K, Crystal	0.001256 kPa and 0.001265 kPa and 0.001267 kPa
320.95 K, Crystal	0.001353 kPa and 0.001356 kPa and 0.001362 kPa
323.33 K, Metastable liquid	0.001658 kPa and 0.00166 kPa and 0.001661 kPa
333.79 K, Liquid	0.003974 kPa and 0.003975 kPa and 0.003979 kPa
338.9 K, Liquid	0.005953 kPa and 0.005954 kPa and 0.005968 kPa
344.09 K, Liquid	0.008882 kPa and 0.00889 kPa and 0.008894 kPa
349.19 K, Liquid	0.0129 kPa and 0.01291 kPa and 0.01293 kPa
354.35 K, Liquid	0.01864 kPa and 0.01865 kPa and 0.01866 kPa
359.4 K, Liquid	0.02628 kPa and 0.02629 kPa and 0.02631 kPa
364.47 K, Liquid	0.03673 kPa
364.48 K, Liquid	0.03672 kPa

Conditions	Boiling temperature at pressure P [°C]
[2]	-61

Conditions	Molar enthalpy of transition or fusion, [3] [kcal/mol]	Solid-liquid equilibrium temperature, [4] [K]
Crystal	4.45	321.3
Metastable crystal	3.47	298.3

CCCCCCCCCC [decane]
[1], Liquid
Conditions	vapor or sublimation pressure
276.76 K	0.03526 kPa
276.77 K	0.03527 kPa and 0.03532 kPa
279.78 K	0.0452 kPa
279.79 K	0.04525 kPa
282.92 K	0.0583 kPa and 0.05835 kPa
282.93 K	0.05835 kPa
285.13 K	0.06951 kPa
285.16 K	0.06967 kPa
285.18 K	0.06981 kPa
288.76 K	0.0915 kPa and 0.09155 kPa
288.77 K	0.09159 kPa
292.21 K	0.1188 kPa
292.22 K	0.1188 kPa
294.67 K	0.1405 kPa
301.29 K	0.2229 kPa
301.38 K	0.2242 kPa and 0.2243 kPa
303.84 K	0.2659 kPa
303.85 K	0.266 kPa and 0.2661 kPa
307.33 K	0.3327 kPa and 0.3328 kPa
315.2 K	0.5466 kPa
315.21 K	0.5467 kPa
319.09 K	0.6901 kPa
319.11 K	0.6907 kPa and 0.6909 kPa
320.85 K	0.7646 kPa and 0.7649 kPa and 0.765 kPa
324.98 K	0.9683 kPa
324.99 K	0.9687 kPa
325 K	0.9687 kPa
326.41 K	1.049 kPa
330.79 K	1.33 kPa and 1.331 kPa
330.8 K	1.332 kPa
331.92 K	1.414 kPa
331.93 K	1.415 kPa

[CH]1C=CC=C1.[CH]1C=CC=C1.[Fe] [ferrocene]
[1], Crystal
Conditions	vapor or sublimation pressure
276.97 K	9.4e-05 kPa and 9.7e-05 kPa
276.98 K	0.000101 kPa
282.75 K	0.000181 kPa and 0.000189 kPa
282.76 K	0.000194 kPa
286.28 K	0.000288 kPa
286.29 K	0.000285 kPa
286.31 K	0.000283 kPa
288.24 K	0.000335 kPa and 0.000344 kPa
292.28 K	0.000536 kPa
292.29 K	0.000527 kPa and 0.000529 kPa
293.76 K	0.000622 kPa and 0.000626 kPa and 0.000627 kPa
294.28 K	0.000652 kPa
294.29 K	0.000646 kPa
294.34 K	0.00065 kPa
296.77 K	0.000841 kPa
296.78 K	0.000848 kPa and 0.000858 kPa
299.19 K	0.001072 kPa and 0.001073 kPa and 0.001078 kPa
302.11 K	0.001417 kPa
302.13 K	0.001428 kPa and 0.001429 kPa
303.24 K	0.00162 kPa
303.25 K	0.001618 kPa
304.61 K	0.001809 kPa and 0.001811 kPa and 0.001815 kPa
307.47 K	0.002395 kPa and 0.002397 kPa and 0.002384 kPa
310.03 K	0.003047 kPa and 0.003053 kPa
310.04 K	0.003068 kPa
312.78 K	0.003906 kPa and 0.00391 kPa and 0.003916 kPa
314.08 K	0.00442 kPa and 0.004424 kPa
314.09 K	0.004449 kPa
315.43 K	0.004969 kPa and 0.004971 kPa
318.06 K	0.006287 kPa and 0.006293 kPa and 0.006304 kPa
320.77 K	0.007956 kPa
323.34 K	0.009923 kPa
323.35 K	0.009927 kPa and 0.009932 kPa
324.89 K	0.01134 kPa and 0.01135 kPa
326.09 K	0.01251 kPa and 0.01252 kPa
328.59 K	0.01539 kPa
328.6 K	0.0154 kPa and 0.01541 kPa
331.35 K	0.01928 kPa
331.36 K	0.01929 kPa and 0.0193 kPa
333.86 K	0.02352 kPa
335.51 K	0.02691 kPa and 0.02692 kPa
336.59 K	0.02929 kPa
336.6 K	0.02929 kPa
339.07 K	0.03535 kPa
339.08 K	0.03533 kPa and 0.03537 kPa
341.81 K	0.04367 kPa and 0.04368 kPa and 0.04369 kPa
344.2 K	0.052 kPa
344.21 K	0.05207 kPa and 0.0521 kPa
346.02 K	0.0598 kPa and 0.05982 kPa and 0.05985 kPa
349.36 K	0.07591 kPa
349.37 K	0.07593 kPa and 0.07595 kPa
351.22 K	0.08709 kPa and 0.08711 kPa and 0.08712 kPa
354.37 K	0.1082 kPa
356.27 K	0.1242 kPa
359.5 K	0.1538 kPa
359.51 K	0.1539 kPa
362.73 K	0.1914 kPa and 0.1916 kPa
366.77 K	0.2492 kPa and 0.2493 kPa and 0.2494 kPa

c1ccc2ccccc2c1 [naphthalene]
[1]
Conditions	vapor or sublimation pressure
276.72 K, Crystal	0.001118 kPa
276.73 K, Crystal	0.001122 kPa
276.74 K, Crystal	0.001118 kPa
280.12 K, Crystal	0.001625 kPa
280.15 K, Crystal	0.001634 kPa
280.17 K, Crystal	0.001644 kPa
283.27 K, Crystal	0.002321 kPa and 0.002329 kPa and 0.002333 kPa
286.33 K, Crystal	0.003264 kPa and 0.003275 kPa
286.34 K, Crystal	0.003276 kPa
289.39 K, Crystal	0.004482 kPa and 0.004484 kPa and 0.004493 kPa
292 K, Crystal	0.005885 kPa and 0.005899 kPa and 0.005902 kPa
292.04 K, Crystal	0.005878 kPa
292.05 K, Crystal	0.005881 kPa and 0.005889 kPa
293.36 K, Crystal	0.006861 kPa
293.38 K, Crystal	0.006881 kPa
293.4 K, Crystal	0.006871 kPa
294.91 K, Crystal	0.007907 kPa
294.94 K, Crystal	0.007905 kPa
294.96 K, Crystal	0.007922 kPa
296.91 K, Crystal	0.009768 kPa and 0.009773 kPa
296.92 K, Crystal	0.009786 kPa
297.67 K, Crystal	0.01039 kPa and 0.0104 kPa
297.68 K, Crystal	0.01041 kPa
300.93 K, Crystal	0.01426 kPa
300.95 K, Crystal	0.01427 kPa and 0.01428 kPa
302.6 K, Crystal	0.01691 kPa and 0.01696 kPa
303.67 K, Crystal	0.01833 kPa and 0.01835 kPa
306.52 K, Crystal	0.02413 kPa
306.6 K, Crystal	0.02433 kPa
306.65 K, Crystal	0.02446 kPa
308.22 K, Crystal	0.02835 kPa and 0.02834 kPa
312.83 K, Crystal	0.04277 kPa
312.84 K, Crystal	0.04281 kPa
312.85 K, Crystal	0.04282 kPa
313.85 K, Crystal	0.04691 kPa
315.09 K, Crystal	0.05173 kPa and 0.05174 kPa
317.19 K, Crystal	0.06259 kPa and 0.06261 kPa and 0.06262 kPa
319.43 K, Crystal	0.07588 kPa and 0.07592 kPa
324.1 K, Crystal	0.1124 kPa
324.99 K, Crystal	0.1206 kPa
325 K, Crystal	0.1206 kPa
325.01 K, Crystal	0.1206 kPa
326.36 K, Crystal	0.1338 kPa
326.37 K, Crystal	0.1338 kPa
328.22 K, Crystal	0.1567 kPa
330.59 K, Crystal	0.1886 kPa
330.6 K, Crystal	0.1887 kPa
335.27 K, Crystal	0.2723 kPa
335.28 K, Crystal	0.2726 kPa
335.31 K, Crystal	0.2732 kPa
336.07 K, Crystal	0.288 kPa and 0.2881 kPa
337.45 K, Crystal	0.3184 kPa
337.46 K, Crystal	0.3185 kPa
339.09 K, Crystal	0.3626 kPa and 0.3628 kPa and 0.3624 kPa
341.45 K, Crystal	0.4305 kPa
341.46 K, Crystal	0.4306 kPa
346.83 K, Crystal	0.6347 kPa
346.84 K, Crystal	0.6347 kPa
348.58 K, Crystal	0.7143 kPa and 0.7145 kPa and 0.7148 kPa
352.18 K, Crystal	0.9195 kPa and 0.9196 kPa
355.35 K, Liquid	1.098 kPa
358.34 K, Liquid	1.266 kPa
358.36 K, Liquid	1.267 kPa
358.38 K, Liquid	1.269 kPa
